What follows are compounds tested against EGFR (human) (UniProt P00533).
Chain of EGFR (human) (P00533 whole entry, looked up): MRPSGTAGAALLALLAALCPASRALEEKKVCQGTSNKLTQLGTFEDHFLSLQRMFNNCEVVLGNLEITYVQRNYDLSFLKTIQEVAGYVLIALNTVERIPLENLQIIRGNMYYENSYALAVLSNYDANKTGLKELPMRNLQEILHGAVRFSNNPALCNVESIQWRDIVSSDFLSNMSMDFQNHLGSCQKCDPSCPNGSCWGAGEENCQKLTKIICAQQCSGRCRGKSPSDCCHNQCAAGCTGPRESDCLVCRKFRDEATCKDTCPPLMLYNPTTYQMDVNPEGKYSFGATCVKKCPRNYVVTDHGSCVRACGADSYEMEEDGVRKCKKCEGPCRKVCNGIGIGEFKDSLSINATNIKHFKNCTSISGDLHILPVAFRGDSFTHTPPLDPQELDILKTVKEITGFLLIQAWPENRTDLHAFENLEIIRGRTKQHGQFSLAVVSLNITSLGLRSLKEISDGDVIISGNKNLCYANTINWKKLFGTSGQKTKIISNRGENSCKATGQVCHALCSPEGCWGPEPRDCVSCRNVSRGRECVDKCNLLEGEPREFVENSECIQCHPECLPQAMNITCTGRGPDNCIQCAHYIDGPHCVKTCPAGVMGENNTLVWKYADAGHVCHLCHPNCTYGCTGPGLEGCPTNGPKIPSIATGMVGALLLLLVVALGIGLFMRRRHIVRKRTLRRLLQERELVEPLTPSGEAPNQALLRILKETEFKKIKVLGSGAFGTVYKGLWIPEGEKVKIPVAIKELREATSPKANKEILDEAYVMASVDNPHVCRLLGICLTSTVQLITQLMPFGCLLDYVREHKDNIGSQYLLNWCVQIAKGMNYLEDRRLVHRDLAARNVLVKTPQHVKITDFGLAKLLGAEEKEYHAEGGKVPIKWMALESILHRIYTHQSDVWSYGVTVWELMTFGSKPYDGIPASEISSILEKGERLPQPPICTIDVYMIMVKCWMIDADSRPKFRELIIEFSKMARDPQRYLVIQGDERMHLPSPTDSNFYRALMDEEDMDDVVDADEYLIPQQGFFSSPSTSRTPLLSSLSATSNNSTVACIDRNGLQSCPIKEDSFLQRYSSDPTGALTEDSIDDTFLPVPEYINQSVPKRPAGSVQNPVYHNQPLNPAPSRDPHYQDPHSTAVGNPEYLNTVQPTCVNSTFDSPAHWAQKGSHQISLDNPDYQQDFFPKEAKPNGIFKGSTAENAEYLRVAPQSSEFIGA

Structure (SMILES) | IC50
COCCOc1cc2ncnc(Nc3ccc(F)c(Cl)c3)c2cc1OCCCCCCC(=O)NO | ≤ 0.1 µM
COc1cc2ncnc(Nc3ccc(F)c(Cl)c3)c2cc1OCCOc1ccc(C=CC(=O)NO)cc1 | ≤ 0.1 µM
COc1cc2ncnc(Nc3ccc(F)c(Cl)c3)c2cc1OCCC(=O)NO | ≤ 0.1 µM
C[C@@H](Nc1ncnc2ccc(OCCCCCCC(=O)NO)cc12)c1ccccc1 | 0.1 to 1 µM
COc1cc2ncnc(Nc3ccc(F)c(Cl)c3)c2cc1OCCCCCCC(=O)NO | ≤ 0.1 µM
COc1ccc([C@@H](C)Nc2ncnc3cc(OC)c(OCCCCCCC(=O)NO)cc23)cc1 | ≥ 10 µM
COc1cc2ncnc(Nc3ccc(F)c(Cl)c3)c2cc1OCCCCCC(=O)NO | ≤ 0.1 µM
C#Cc1cccc(Nc2ncnc3cc(OC)c(NC(=O)CCCCCCC(=O)NO)cc23)c1 | ≤ 0.1 µM
COc1cc2ncnc(NCc3cccc(Br)c3)c2cc1OCCCCCCC(=O)NO | 0.1 to 1 µM
C#Cc1cccc(Nc2ncnc3cc(OC)c(NC(=O)CCCC(=O)NO)cc23)c1 | ≤ 0.1 µM
COc1cc2ncnc(NCCc3ccccc3)c2cc1OCCCCCCC(=O)NO | 0.1 to 1 µM
COc1cc2ncnc(NCc3ccccc3)c2cc1OCCCCCCC(=O)NO | ≤ 0.1 µM
O=C(CCCCCNCc1ccc(-c2ccc3ncnc(Nc4ccc(OCc5cccc(F)c5)c(Cl)c4)c3c2)o1)NO | ≤ 0.1 µM
COc1cc2ncnc(Nc3ccc(F)c(Cl)c3)c2cc1SCCCCCCC(=O)NO | ≤ 0.1 µM
COc1cc2ncnc(Nc3ccc(F)c(Cl)c3)c2cc1OCCCCCCN(O)C(N)=O | ≤ 0.1 µM
COc1cc2ncnc(Nc3ccc(F)c(Cl)c3)c2cc1SCCCCC(=O)NO | ≤ 0.1 µM
O=C(CCCCCCOc1ccc2ncnc(Nc3ccc(F)c(Cl)c3)c2c1)NO | ≤ 0.1 µM
C#Cc1cccc(Nc2ncnc3ccc(OCCCCCC(=O)NO)cc23)c1 | 0.1 to 1 µM
COc1cc2ncnc(N[C@H](C)c3ccc(F)cc3)c2cc1OCCCCCCC(=O)NO | 0.1 to 1 µM
C#Cc1cc(Nc2ncnc3cc(OC)c(OCCCCCCC(=O)NO)cc23)ccc1O | ≤ 0.1 µM
COc1cc2ncnc(Nc3ccc(F)c(Cl)c3)c2cc1OCCCC(=O)NO | ≤ 0.1 µM

Structure (SMILES) | IC50
C#Cc1cccc(Nc2ncnc3cc(OC)c(OCCCCCC(=O)NO)cc23)c1 | ≤ 0.1 µM
COc1cc2ncnc(Nc3ccc(F)c(Cl)c3)c2cc1OCCCCC(=O)NO | ≤ 0.1 µM
C#Cc1cccc(Nc2ncnc3cc(OCCOC)c(OCCCCCCC(=O)NO)cc23)c1 | ≤ 0.1 µM
C#Cc1cccc(Nc2ncnc3ccc(OCC(=O)NO)cc23)c1 | ≤ 0.1 µM
C#Cc1cccc(Nc2ncnc3ccc(OCCCCCCC(=O)NO)cc23)c1 | 0.1 to 1 µM
C#Cc1cccc(Nc2ncnc3cc(OCCCCCCC(=O)NO)c(OC)cc23)c1 | ≤ 0.1 µM
C#Cc1cccc(Nc2ncnc3cc(OC)c(OCCCC(=O)NO)cc23)c1 | ≤ 0.1 µM
O=C(CCCCCCOc1ccc2ncnc(Nc3ccc(OCc4cccc(F)c4)c(Cl)c3)c2c1)NO | ≤ 0.1 µM
O=C(COc1ccc2ncnc(Nc3ccc(F)c(Cl)c3)c2c1)NO | ≤ 0.1 µM
C#Cc1cccc(Nc2ncnc3cc(OC)c(OCC(=O)NO)cc23)c1 | ≤ 0.1 µM
COc1cc2ncnc(Nc3ccc(F)c(Cl)c3)c2cc1CCCCCC(=O)NO | ≤ 0.1 µM
O=C(CCCCCOc1ccc2ncnc(Nc3ccc(F)c(Cl)c3)c2c1)NO | ≤ 0.1 µM
COc1cc2ncnc(Nc3ccc(F)c(Cl)c3)c2cc1OCC(=O)NO | ≤ 0.1 µM
COc1cc2ncnc(Nc3ccc(OCc4cccc(F)c4)c(Cl)c3)c2cc1OCCCCCCC(=O)NO | ≤ 0.1 µM
C#Cc1cccc(Nc2ncnc3cc(OCCCCCCC(=O)NO)c(OCCOC)cc23)c1 | ≤ 0.1 µM
C#Cc1cccc(Nc2ncnc3cc(OC)c(OCCC(=O)NO)cc23)c1 | ≤ 0.1 µM
COc1cc2ncnc(NCc3ccc(F)c(F)c3)c2cc1OCCCCCCC(=O)NO | 0.1 to 1 µM
C#Cc1cccc(Nc2ncnc3cc(OC)c(NC(=O)CCCCC(=O)NO)cc23)c1 | ≤ 0.1 µM
COc1cc2ncnc(Nc3ccc(F)c(Cl)c3)c2cc1NC(=O)Nc1ccc(C(=O)NO)cc1 | ≤ 0.1 µM
COc1cc2ncnc(Nc3ccc(F)c(Cl)c3)c2cc1OCCOc1ccc(C(=O)NO)cc1 | ≤ 0.1 µM
C#Cc1cccc(Nc2ncnc3cc(O)c(OCCCCCCC(=O)NO)cc23)c1 | ≤ 0.1 µM

Results, then the compound that gave them:

IC50 | Structure (SMILES)
≤ 0.1 µM | C#Cc1cc(Nc2ncnc3cc(OC)c(OCCCCCCC(=O)NO)cc23)ccc1F
≤ 0.1 µM | O=C(CCOc1ccc2ncnc(Nc3ccc(F)c(Cl)c3)c2c1)NO
0.1 to 1 µM | Nc1cc(Br)ccc1NC(=O)COc1ccc2ncnc(Nc3ccc(F)c(Cl)c3)c2c1
≤ 0.1 µM | COc1cc2ncnc(Nc3ccc(F)c(Cl)c3)c2cc1NC(=O)CCCCCCC(=O)NO
0.1 to 1 µM | COc1cc2ncnc(N[C@H](C)c3ccc(Cl)cc3)c2cc1OCCCCCCC(=O)NO
≤ 0.1 µM | COCCOc1cc2ncnc(Nc3ccc(F)c(Cl)c3)c2cc1NC(=O)CCCC(=O)NO
≤ 0.1 µM | COc1cc2ncnc(NCc3ccc(F)c(Cl)c3)c2cc1OCCCCCCC(=O)NO
≤ 0.1 µM | COc1cc2ncnc(Nc3ccc(F)c(Cl)c3)c2cc1OCCOc1ccc(CC(=O)NO)cc1
≤ 0.1 µM | COc1cc2ncnc(Nc3ccc(F)c(Cl)c3)c2cc1NC(=O)CCCC(=O)NO
≤ 0.1 µM | C#Cc1cccc(Nc2ncnc3ccc(OCCCCC(=O)NO)cc23)c1
0.1 to 1 µM | C#Cc1cccc(Nc2ncnc3ccc(OCCCC(=O)NO)cc23)c1
≤ 0.1 µM | C#Cc1cc(Nc2ncnc3cc(OCCOC)c(OCCCCCCC(=O)NO)cc23)ccc1F
≤ 0.1 µM | COc1cc2ncnc(Nc3ccc(F)c(Cl)c3)c2cc1OCCCCCCC(=O)N(C)O
≤ 0.1 µM | COCCOc1cc2ncnc(Nc3ccc(F)c(Cl)c3)c2cc1NC(=O)CCCCC(=O)NO
≤ 0.1 µM | COc1cc2ncnc(N[C@H](C)c3ccccc3)c2cc1OCCCCCC(=O)NO
≤ 0.1 µM | COCCOc1cc2ncnc(Nc3ccc(OCc4cccc(F)c4)c(Cl)c3)c2cc1OCCCCCCC(=O)NO
≤ 0.1 µM | O=C(CCCCOc1ccc2ncnc(Nc3ccc(F)c(Cl)c3)c2c1)NO
≤ 0.1 µM | COCCOc1cc2ncnc(Nc3ccc(F)c(Cl)c3)c2cc1NC(=O)CCCCCCC(=O)NO
≤ 0.1 µM | COCCOc1cc2c(Nc3ccc(F)c(Cl)c3)ncnc2cc1OCCCCCCC(=O)NO
0.1 to 1 µM | C[C@@H](Nc1ncnc2ccc(OCCCCCC(=O)NO)cc12)c1ccccc1
≤ 0.1 µM | O=C(CCCCCCCNCc1ccc(-c2ccc3ncnc(Nc4ccc(OCc5cccc(F)c5)c(Cl)c4)c3c2)o1)NO

Source: the Kinase Knowledgebase extract (Sharma et al. 2016)
